From patent US9394555B2, “Compositions comprising a polypeptide having cellulolytic enhancing activity and a dioxy compound and uses thereof” (priority 2010, dated 2016)

Assays:
[1] = system: T. terrestris GH61E polypeptide; test: Microcrystalline cellulose conversion assay I (Examples 8, 9) with T. terrestris GH61E polypeptide; format: biochemical, Thielavia terrestris; conditions: dioxy compound 0.3% w/w + T. terrestris GH61E polypeptide (10 mg/g) + endoglucanase II + beta-glucosidase (5 mg/g each), 96 hours
Description: (§1) A 5% microcrystalline cellulose slurry was prepared by addition of 2.5 g of AVICEL®PH101 (Sigma-Aldrich, St. Louis, Mo., USA) to a graduated 50 ml screw-cap conical tube followed by 15 ml of 1 M sodium acetate pH 5 and 1 ml of 100 mM MnSO4 and approximately 20 ml of deionizer water. Each conical tube was then mixed thoroughly by shaking/vortexing, and adjusted to 50 ml total with deionized water and mixed again. Contents of the tube were then quickly transferred to a 100 ml beaker and stirred rapidly with a magnetic stirrer. Five hundred μl aliquots of the 5% AVICEL® slurry were pipetted into wells of a 2.0 ml 96-deepwell plate (Axygen, Union City, Calif., USA) using a 1000 μl micropipette with a wide aperture tip (end of tip cut off about 2 mm from the base). Three hundred μl of either deionized water or a 1% dioxy compound solution (dissolved in deionized water) was added to each well.
(§2) The dioxy compounds assayed include caffeic acid (Sigma-Aldrich, St. Louis, Mo., USA), dichlorophenolindophenol (DCPIP; Sigma-Aldrich, St. Louis, Mo., USA), ethyl gallate (Sigma-Aldrich, St. Louis, Mo., USA), gallic acid (Sigma-Aldrich, St. Louis, Mo., USA), 3,4-dihydroxybenzoic acid (Sigma-Aldrich, St. Louis, Mo., USA), pyrocatechol (Sigma-Aldrich, St. Louis, Mo., USA), pyrogallol (Sigma-Aldrich, St. Louis, Mo., USA), sinapinic acid (3,5 dimethoxy-4-hydroxy cinnamic acid; Apin Chemicals LTD, Abingdon, UK), and tannic acid (Sigma-Aldrich, St. Louis, Mo., USA).
(§3) Enzyme mixtures were prepared and then added simultaneously to all wells in a volume of 200 μl, for a total of 1 ml in each reaction. […] All experiments reported were performed in triplicate.
(§4) After approximately 4 days, the deep-well plate was removed from the incubator and chilled overnight to 4° C. The plate was then mixed well by inversion and briefly centrifuged at 52×g in a SORVALL® RT7 centrifuge (Thermo Fisher Scientific, Waltham, Mass., USA) for 10 seconds. Samples were then mixed by pipetting, and 200 μl from each well were transferred to a MULTISCREEN® HV centrifuge filter plate assembly (Millipore, Bedford, Mass., USA). The centrifuge filter plate assembly was centrifuged at 2000 rpm in a SORVALL® RT7 centrifuge for 20 minutes. […] Sugars were detected using a refractive index detector (Agilent Technologies, Inc., Santa Clara, Calif., USA) with quantification by integration compared to purified sugar standards.
(§5) In this assay only glucose was measured since beta-glucosidase was at high levels in all samples but the controls.
(§6) A limit digest was performed to determine the total concentration accessible glucose equivalents using 100 mg of T. reesei cellulase (CELLIC™ CTec, Novozymes A/S, Bagsvaerd, Denmark) per gram cellulose, Triplicate data points were averaged and standard deviation was calculated.

[2] = target: T. aurantiacus GH61A polypeptide (Thermoascus aurantiacus, UniProt G3XAP7, N13Y); test: Microcrystalline cellulose conversion assay II (Examples 10, 11), T. reesei CEL7A cellobiohydrolase I + A. oryzae CEL3A beta-glucosidase; format: biochemical; conditions: 72 hours, 50° C.; for conversion (hydrolysis) of the microcrystalline cellulose: dioxy compound 0.1% w/w alone, no enzymes
T. aurantiacus GH61A polypeptide, sequence (G3XAP7 whole entry N13Y): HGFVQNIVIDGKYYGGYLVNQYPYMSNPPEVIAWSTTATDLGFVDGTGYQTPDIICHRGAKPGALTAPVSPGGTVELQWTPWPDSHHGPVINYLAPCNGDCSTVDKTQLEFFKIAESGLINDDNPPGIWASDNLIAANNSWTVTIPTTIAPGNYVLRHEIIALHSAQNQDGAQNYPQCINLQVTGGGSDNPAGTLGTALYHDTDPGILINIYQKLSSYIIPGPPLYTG
Description: A 5% microcrystalline cellulose slurry was prepared by addition of 2.5 g of AVICEL® PH101 to a graduated 50 ml screw-cap conical tube followed by approximately 40 ml of deionized water. Each conical tube was then mixed thoroughly by shaking/vortexing, and adjusted to 50 ml total with deionized water and mixed again. For samples containing dioxy compounds, a similar slurry was prepared by the addition of 100 mg of solid dioxy compound and 2.5 g of AVICEL® PH101 to a graduated 50 ml screw-cap conical tube followed by approximately 40 ml of deionized water. Each conical tube was then mixed thoroughly by shaking/vortexing, and adjusted to 50 ml total with deionized water and mixed again.
The dioxy compounds assayed include caffeic acid, dichlorophenolindophenol (DCPIP), ethyl gallate, gallic acid, 3,4-dihydroxybenzoic acid, pyrocatechol, pyrogallol, sinapinic acid (3,5 dimethoxy-4-hydroxy cinnamic acid), and tannic acid.
In all cases, the contents of the tube (5% microcrystalline cellulose slurry with or without 0.2% dioxy compound) were then quickly transferred to a 100 ml beaker and stirred rapidly with a magnetic stirrer. Five hundred μl aliquots of the 5% AVICEL® slurry were pipetted into wells of a 2.0 ml 96-deepwell plate (Axygen, Union City, Calif.) using a 1000 μl micropipette with a wide aperture tip (end of tip cut off about 2 mm from the base). One hundred μl of deionized water and 300 μl of 3.33 mM MnSO4-500 mM sodium acetate pH 5 were then added to each well. Enzyme mixtures were prepared and then added simultaneously to all wells in a volume of 100 μl, for a total of 1 ml in each reaction. […] All experiments reported were performed in triplicate.
as §4, with “Primary analysis of the hydrolysis reactions was performed using an AGILENT® 1100 HPLC with CHEMSTATION® software equipped with an AMINEX™ HPX-87H column. After” for “After”, “centrifuge” for “centrifuge (Thermo Fisher Scientific, Waltham, Mass., USA)”, “assembly.” for “assembly (Millipore, Bedford, Mass., USA).”, “detector” for “detector (Agilent Technologies, Inc., Santa Clara, Calif., USA)”
All HPLC data processing was performed using MICROSOFT EXCEL™ software. […] In this assay only glucose was measured since beta-glucosidase was at high levels in all samples but the controls. The degree of cellulose conversion was calculated using Equation 1. Triplicate data points were averaged and standard deviation was calculated.
The microcrystalline cellulose hydrolysis assay was performed as described in Example 10.
Data were collected and analyzed, as described in Example 10, after 72 hours of incubation at 50° C.

[3] = system: T. aurantiacus CEL5A endoglucanase II and P. brasilianum CEL3A beta-glucosidase; test: Microcrystalline cellulose conversion assay I (Examples 8, 9) without GH61 polypeptide; format: biochemical, Thermoascus aurantiacus; Penicillium brasilianum; conditions: dioxy compound 0.3% w/w + endoglucanase II + beta-glucosidase (5 mg/g each), no GH61; 96 hours, at either 50° C. or 60° C.
Description: as §1, §2, §3, §4, §5, §6

Structure (SMILES) | conversion of microcrystalline cellulose ([1]; 50° C.) [%] | conversion of microcrystalline cellulose ([1]; 60° C.) [%] | conversion of the microcrystalline cellulose ([2]; dioxy compound 0.1% w/w + cellobiohydrolase I + beta-glucosidase (5 mg/g each), no GH61) | conversion (hydrolysis) of the microcrystalline cellulose [2] | change in conversion of microcrystalline cellulose compared to the enzymes in the absence of the dioxy compound [3]
Oc1ccccc1O [pyrocatechol] | 7.4±0.2 | 7.9±0.1 | no significant change | no significant hydrolysis | no significant change
Oc1cccc(O)c1O [pyrogallol] | 7.1±0.5 | 9.5±0.1 | – | no significant hydrolysis | no significant change
O=C(OC[C@H]1O[C@@H](OC(=O)c2cc(O)c(O)c(OC(=O)c3cc(O)c(O)c(O)c3)c2)[C@H](OC(=O)c2cc(O)c(O)c(OC(=O)c3cc(O)c(O)c(O)c3)c2)[C@@H](OC(=O)c2cc(O)c(O)c(OC(=O)c3cc(O)c(O)c(O)c3)c2)[C@@H]1OC(=O)c1cc(O)c(O)c(OC(=O)c2cc(O)c(O)c(O)c2)c1)c1cc(O)c(O)c(OC(=O)c2cc(O)c(O)c(O)c2)c1 [tannic acid] | 5.7±0.1 | 6.0±0.2 | – | – | no significant change
O=C(O)/C=C/c1ccc(O)c(O)c1 [caffeic acid] | 4.4±0.1 | 7.0±0.1 | – | no significant hydrolysis | no significant change
CCOC(=O)c1cc(O)c(O)c(O)c1 [ethyl gallate] | 6.0±0.3 | 6.2±0.1 | – | no significant hydrolysis | no significant change
